Molecular target: T1, hPXR (Homo sapiens, UniProt O75469)
T1 construct: expressed in transfected cells; provided by Dr. Taosheng Chen, St. Jude
T1 sequence (O75469 1-434): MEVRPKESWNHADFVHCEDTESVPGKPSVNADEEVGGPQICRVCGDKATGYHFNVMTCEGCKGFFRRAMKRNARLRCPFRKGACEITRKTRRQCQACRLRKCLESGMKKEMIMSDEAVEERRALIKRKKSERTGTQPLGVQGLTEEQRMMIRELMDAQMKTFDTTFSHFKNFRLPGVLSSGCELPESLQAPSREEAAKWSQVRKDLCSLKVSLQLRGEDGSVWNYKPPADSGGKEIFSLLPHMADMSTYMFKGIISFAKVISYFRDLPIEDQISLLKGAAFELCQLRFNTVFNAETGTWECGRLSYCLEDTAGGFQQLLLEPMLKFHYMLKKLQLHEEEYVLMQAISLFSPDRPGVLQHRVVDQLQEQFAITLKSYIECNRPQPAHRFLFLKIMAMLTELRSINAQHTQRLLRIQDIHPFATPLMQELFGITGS
Test: PXR luciferase reporter gene assay (qHTS antagonist mode, rifampicin co-treatment) in HepG2-CYP3A4-hPXR cells
Type: cell-based
Conditions: 2 μM rifampicin, used as treatment concentration in HepaRG cells
Procedure: HepG2 cells stably transfected with a CYP3A4-luc promoter construct and hPXR expression plasmid were provided by Dr. Taosheng Chen (Department of Chemical Biology and Therapeutics, St. Jude Children’s Research Hospital) ([Lin et al., 2008]). Cells were thawed in EMEM (ATCC, Rockville, Maryland), supplemented with 10% Hyclone FBS (GE Healthcare Life Sciences, Logan, Utah) and 100 U/mL of Penicillin and 100 μg/mL of Streptomycin (Invitrogen, Carlsbad, CA) and kept in an incubator at 37°C and 5% CO2. To culture these HepG2-CYP3A4-hPXR cells, 500 μg/mL of Geneticin (GIBCO, Gaithersburg, MD) was added to the thawing media.
HepG2-CYP3A4-hPXR cells were dispensed into tissue culture treated 1536-well white assay plates (Greiner Bio-One North America, Monroe, NC) using a Multidrop Combi (Thermo Fisher Scientific Inc., Waltham, Massachusetts) at 2,500 cells/4 µL/well. The cell suspension was prepared using new assay media, which contained phenol red-free DMEM (GIBCO), 5% charcoal/dextran-treated FBS (Invitrogen), 1 mM sodium pyruvate (Invitrogen), 2 mM L-Glutamine (Invitrogen), and 100 U/mL of Penicillin and 100 μg/mL of Streptomycin (Invitrogen). All plates were then incubated for 4 h in a 37°C and 5% CO2 incubator. […] In the primary screen, each compound was tested at 7 concentrations ranging from 46 μM to 1.5 nM. 1 μL of rifampicin, a known PXR agonist, was also co-treated in each well, generating a final concentration of 2 μM, using a Flying Reagent Dispenser (Aurora Discovery, Carlsbad, California). All assay plates were placed in an incubator at 37°C with 5% CO2 for 23 h. Following the incubation period, 1 µL of CellTiter-Fluor reagent (Promega, Madison, Wisconsin) was added to each well and all assay plates were placed back into the incubator set at 37°C and 5% CO2 for 1 h. Fluorescence intensity at 540 nm was measured following excitation at 405 nm using a ViewLux plate reader (Perkin Elmer, Shelton, Connecticut), in order to assess cell viability following treatment. Directly after the fluorescent read, 4 μL of ONE-Glo Luciferase reagent (Promega, Madison, Wisconsin) was added to each well using a Flying Reagent Dispenser, and plates were left to sit at room temperature for 30 min. The luminescence of each plate was then measured using the ViewLux plate reader and data were expressed as relative luminescence units. Gross assay performance was assessed by calculating quality metrics, such as coefficient of variance (CV), signal-to-background ratio (S/B), and Z′ factor, a measure of statistical effect size frequently used to judge whether an assay can be scaled up to a large high-throughput screen ([Zhang et al., 1999]).
Data analysis was completed using a previously described protocol ([Huang et al., 2016]). […] Normalized percent activity for all test compounds was determined using the following equation: % activity = [(V compound - V DMSO)/(V DMSO–V pos)] × 100, where V compound denotes the compound well values, V pos denotes the median value of the positive control wells, and V DMSO denotes the median value of the DMSO-only wells. Following normalization, data points were corrected using DMSO-only plates included at the beginning and end of the compound plate stack using an in-house pattern correction algorithm in order to remove background patterns, as well as other small abnormalities within the dataset ([Southall et al., 2009]). […] Efficacy is then [a inf - a 0 ]. a=a0+ainf−a0 c^n/k^n+c^n
Curve class was further converted to curve rank by combining each class with efficacy, such that good quality, efficacious curves are assigned large absolute curve rank values. […] The activity outcome was based on the PXR antagonist readout activity and a cell viability counter screen.

Row | IC70 values from the original NPACT screen [µM] | SMILES
1 | 4 | COc1cc(-c2cn(C3CCc4c(F)cccc4N(CC(F)(F)F)C3=O)nn2)ccc1-n1cnc(C)c1 (centres unmarked) [GSM2]
2 | 5 | CC(=O)O[C@H]1C[C@@]2(C)[C@@H](C[C@@H](O)[C@H]3[C@@]4(C)CC[C@@H](O)[C@@H](C)[C@@H]4CC[C@@]32C)/C1=C(\CCC=C(C)C)C(=O)O [fusidic acid]
